Source: patent publication US20120263739A1, “ANTI INTEGRIN ANTIBODIES LINKED TO NANOPARTICLES LOADED WITH CHEMOTHERAPEUTIC AGENTS” (MERCK PATENT GMBH, priority 2009, published 2012)

Legend:
[1] = system: αvβ3-positive M21 melanoma cells; test: MTT cell viability assay; settings: MTT, reduce cell viability by 50%, M21 cells
Experimental: Cell viability was assessed using the 3-(4,5-dimethylthiazol-2-yl)-2,5-diphenyltetrazolium bromide (MTT) dye reduction assay [27] modified as described before [28].

[2] = Particle content by microgravimetry; format: physicochemical; settings: mean ± SD; n = 3; 100% crosslinking
Experimental: (§1) Nanoparticles were analyzed with regard to particle diameter and polydispersity by photon correlation spectroscopy (PCS) using a Malvern Zetasizer 3000HSA (Malvern Instruments Ltd., Malvern, UK). The zetapotential was measured with the same instrument by Laser Doppler microelectrophoresis. Prior to both measurements the samples were diluted with filtered (0.22 μm) purified water. Particle content was determined by microgravimetry. For this purpose 50.0 μl of the nanoparticle suspension was pipetted into an aluminium weighing dish and dried for 2 h at 80° C. After 30 min of storage in an exsiccator the samples were weighed on a micro balance (Sartorius, Germany).

[3] = Zetapotential by Laser Doppler microelectrophoresis; format: physicochemical; settings: mean ± SD; n = 3; 100% crosslinking
Experimental: as §1

[4] = system: M21 cells; test: Cellular uptake and intracellular distribution, confocal laser scanning microscopy; format: cell-based; settings: 10 ng/μl, 4 h at 37° C., CLSM
Experimental: Cellular uptake and intracellular distribution: The cellular uptake and intracellular distribution of these nanoparticulate formulations are shown by confocal laser scanning microscopy (CLSM). αvβ3 integrin-positive M21 melanoma cells are incubated with NP-Dox-DI17E6, with NP-Dox-IgG, or free Doxorubicin (FIG. 5). […] The overlay of the different fluorescence channels (FIG. 6B-D) verifies the intracellular uptake of NP-Dox-DI17E6 (FIG. 6A).
FIG. 5: Cellular uptake and intracellular distribution of nanoparticles studied by confocal laser scanning microscopy (CLSM). M21 cells were cultured on glass slides and treated with 10 ng/μl of the different nanoparticle formulations (referred to DI17E6 concentration or equivalent amount of control nanoparticles) for 4 h at 37° C. The green autofluorescence of the nanoparticles was used for detection and the red autofluorescence of doxorubicin. The cell membranes were stained with Concanavalin A AlexaFluor 350 (blue). Pictures were taken within inner sections of the cells. […]
Cellular uptake and intracellular distribution of the nanoparticles were studied by confocal laser scanning microscopy. […] (concentrations are calculated referred to DI17E6 or equivalent NP amounts as described in 2.5). […] Nanoparticles were detected at 488/520 nm. Doxorubicin was detected by red fluorescence at 488/590 nm.

[5] = system: αv-defective melanoma cells M21L; test: Cellular binding of nanoparticulate formulations, flow cytometry (FACS); format: cell-based; settings: 2 ng/μl, 4 h at 37° C.
Experimental: (§2) Cellular binding: αvβ3 integrin-positive melanoma cells M21 and αv-negative melanoma cells M21L are incubated with DI17E6-coupled nanoparticles (NP-DI17E6) or nanoparticles coupled to an unspecific control mAb IgG (NP-IgG). […] Both nanoparticle preparations show low binding to M21L cells (FIG. 4D).
(§3) FIG. 4: Cellular binding of unloaded and doxorubicin loaded nanoparticulate formulations. αvβ3 integrin positive melanoma cells M21 (A and C) and αv-defective melanoma cells M21L (B and D) were treated with 2 ng/μl of the different unloaded (A and B) or doxorubicin loaded (C and D) nanoparticulate formulations for 4 h at 37° C. (concentrations are calculated referred to DI17E6 or equivalent NP amounts). Flow cytometry (FACS) analysis was performed to quantify their cellular binding. The data is shown as histogram of the FL1-H-channel (autofluorescence of the nanoparticles). Green: NP-DI17E6 and NP-Dox-DI17E6 respectively, red: NP-IgG and NP-Dox-IgG respectively, blue: untreated control. […]
(§4) M21 or M21L cells were cultured in 24-well plates (Greiner, Frickenhausen, Germany) and treated with the different nanoparticle formulations for 4 h at 37° C. […] Control nanoparticles without DI17E6 modification were used in equivalent nanoparticle quantities. […] Nanoparticles could be detected at 488/520 nm.

[6] = system: αvβ3 integrin positive melanoma cells M21; test: as above; format: cell-based; settings: 2 ng/μl, 4 h at 37° C.
Experimental: as §2, §3, §4

**Q.** Which results are given for NP-Dox-DI17E6?
**A.** IC-50 M21 [1]: 8.0 ± 0.2 ng/mL; Particle content [2]: 14.4 ± 1.2 mg/mL; Zetapotential [3]: −40.3 ± 3.1 mV; Cellular uptake and intracellular distribution [4]: reaches the inner part of the cells; Cellular binding to M21L cells [5]: low binding; Cellular binding to M21 cells [6]: high binding
